From patent US20070021434A1, “NON-NUCLEOSIDE ANTI-HEPACIVIRUS AGENTS AND USES THEREOF” (Migenix Inc., priority 2005, published 2007)

Legend:
[1] = target: HCV RdRp (NS5B) (UniProt P26663); assay type: biochemical, hepatitis C virus
[2] = test system: Huh-7 cells, genotype 1b HCV replicon; experiment: Inhibition of HCV replication in cell culture, genotype 1b replicon; assay type: cell-based, hepatitis C virus; settings: for EC50: Hepatitis C virus, Huh-7, 24 h, Huh-7, genotype 1b replicon, intracellular HCV RNA 24 h after 3 daily doses, read-out: EC50; for Selectivity Index (CC50/EC50): genotype 1b replicon, CC50 by neutral red uptake
Procedure: Test compounds were solubilized at 30 mM in 100% tissue culture grade DMSO (Sigma, Inc.). Aliquots of test compounds sufficient for one daily treatment were made in individual tubes and all material was stored at −20° C. On each day of treatment, daily aliquots of the test compounds were suspended in culture medium at room temperature and immediately added to the cell cultures. Compounds were added to dividing cultures once daily for three days at concentrations ranging from about 30 μM to about 0.0003 μM. Media was changed with each addition of compound. The assays were started when cell cultures were at about 30-50% confluence, and the cells reached confluence during the last day of treatment. The assays included untreated control cultures (six total), and triplicate cultures treated with α-interferon and ribavirin as positive antiviral and toxicity controls.
Intracellular HCV RNA levels and cytotoxicity were assessed in triplicate 24 hours after the last compound dose.

Chain of HCV RdRp (NS5B) (P26663 whole entry, looked up): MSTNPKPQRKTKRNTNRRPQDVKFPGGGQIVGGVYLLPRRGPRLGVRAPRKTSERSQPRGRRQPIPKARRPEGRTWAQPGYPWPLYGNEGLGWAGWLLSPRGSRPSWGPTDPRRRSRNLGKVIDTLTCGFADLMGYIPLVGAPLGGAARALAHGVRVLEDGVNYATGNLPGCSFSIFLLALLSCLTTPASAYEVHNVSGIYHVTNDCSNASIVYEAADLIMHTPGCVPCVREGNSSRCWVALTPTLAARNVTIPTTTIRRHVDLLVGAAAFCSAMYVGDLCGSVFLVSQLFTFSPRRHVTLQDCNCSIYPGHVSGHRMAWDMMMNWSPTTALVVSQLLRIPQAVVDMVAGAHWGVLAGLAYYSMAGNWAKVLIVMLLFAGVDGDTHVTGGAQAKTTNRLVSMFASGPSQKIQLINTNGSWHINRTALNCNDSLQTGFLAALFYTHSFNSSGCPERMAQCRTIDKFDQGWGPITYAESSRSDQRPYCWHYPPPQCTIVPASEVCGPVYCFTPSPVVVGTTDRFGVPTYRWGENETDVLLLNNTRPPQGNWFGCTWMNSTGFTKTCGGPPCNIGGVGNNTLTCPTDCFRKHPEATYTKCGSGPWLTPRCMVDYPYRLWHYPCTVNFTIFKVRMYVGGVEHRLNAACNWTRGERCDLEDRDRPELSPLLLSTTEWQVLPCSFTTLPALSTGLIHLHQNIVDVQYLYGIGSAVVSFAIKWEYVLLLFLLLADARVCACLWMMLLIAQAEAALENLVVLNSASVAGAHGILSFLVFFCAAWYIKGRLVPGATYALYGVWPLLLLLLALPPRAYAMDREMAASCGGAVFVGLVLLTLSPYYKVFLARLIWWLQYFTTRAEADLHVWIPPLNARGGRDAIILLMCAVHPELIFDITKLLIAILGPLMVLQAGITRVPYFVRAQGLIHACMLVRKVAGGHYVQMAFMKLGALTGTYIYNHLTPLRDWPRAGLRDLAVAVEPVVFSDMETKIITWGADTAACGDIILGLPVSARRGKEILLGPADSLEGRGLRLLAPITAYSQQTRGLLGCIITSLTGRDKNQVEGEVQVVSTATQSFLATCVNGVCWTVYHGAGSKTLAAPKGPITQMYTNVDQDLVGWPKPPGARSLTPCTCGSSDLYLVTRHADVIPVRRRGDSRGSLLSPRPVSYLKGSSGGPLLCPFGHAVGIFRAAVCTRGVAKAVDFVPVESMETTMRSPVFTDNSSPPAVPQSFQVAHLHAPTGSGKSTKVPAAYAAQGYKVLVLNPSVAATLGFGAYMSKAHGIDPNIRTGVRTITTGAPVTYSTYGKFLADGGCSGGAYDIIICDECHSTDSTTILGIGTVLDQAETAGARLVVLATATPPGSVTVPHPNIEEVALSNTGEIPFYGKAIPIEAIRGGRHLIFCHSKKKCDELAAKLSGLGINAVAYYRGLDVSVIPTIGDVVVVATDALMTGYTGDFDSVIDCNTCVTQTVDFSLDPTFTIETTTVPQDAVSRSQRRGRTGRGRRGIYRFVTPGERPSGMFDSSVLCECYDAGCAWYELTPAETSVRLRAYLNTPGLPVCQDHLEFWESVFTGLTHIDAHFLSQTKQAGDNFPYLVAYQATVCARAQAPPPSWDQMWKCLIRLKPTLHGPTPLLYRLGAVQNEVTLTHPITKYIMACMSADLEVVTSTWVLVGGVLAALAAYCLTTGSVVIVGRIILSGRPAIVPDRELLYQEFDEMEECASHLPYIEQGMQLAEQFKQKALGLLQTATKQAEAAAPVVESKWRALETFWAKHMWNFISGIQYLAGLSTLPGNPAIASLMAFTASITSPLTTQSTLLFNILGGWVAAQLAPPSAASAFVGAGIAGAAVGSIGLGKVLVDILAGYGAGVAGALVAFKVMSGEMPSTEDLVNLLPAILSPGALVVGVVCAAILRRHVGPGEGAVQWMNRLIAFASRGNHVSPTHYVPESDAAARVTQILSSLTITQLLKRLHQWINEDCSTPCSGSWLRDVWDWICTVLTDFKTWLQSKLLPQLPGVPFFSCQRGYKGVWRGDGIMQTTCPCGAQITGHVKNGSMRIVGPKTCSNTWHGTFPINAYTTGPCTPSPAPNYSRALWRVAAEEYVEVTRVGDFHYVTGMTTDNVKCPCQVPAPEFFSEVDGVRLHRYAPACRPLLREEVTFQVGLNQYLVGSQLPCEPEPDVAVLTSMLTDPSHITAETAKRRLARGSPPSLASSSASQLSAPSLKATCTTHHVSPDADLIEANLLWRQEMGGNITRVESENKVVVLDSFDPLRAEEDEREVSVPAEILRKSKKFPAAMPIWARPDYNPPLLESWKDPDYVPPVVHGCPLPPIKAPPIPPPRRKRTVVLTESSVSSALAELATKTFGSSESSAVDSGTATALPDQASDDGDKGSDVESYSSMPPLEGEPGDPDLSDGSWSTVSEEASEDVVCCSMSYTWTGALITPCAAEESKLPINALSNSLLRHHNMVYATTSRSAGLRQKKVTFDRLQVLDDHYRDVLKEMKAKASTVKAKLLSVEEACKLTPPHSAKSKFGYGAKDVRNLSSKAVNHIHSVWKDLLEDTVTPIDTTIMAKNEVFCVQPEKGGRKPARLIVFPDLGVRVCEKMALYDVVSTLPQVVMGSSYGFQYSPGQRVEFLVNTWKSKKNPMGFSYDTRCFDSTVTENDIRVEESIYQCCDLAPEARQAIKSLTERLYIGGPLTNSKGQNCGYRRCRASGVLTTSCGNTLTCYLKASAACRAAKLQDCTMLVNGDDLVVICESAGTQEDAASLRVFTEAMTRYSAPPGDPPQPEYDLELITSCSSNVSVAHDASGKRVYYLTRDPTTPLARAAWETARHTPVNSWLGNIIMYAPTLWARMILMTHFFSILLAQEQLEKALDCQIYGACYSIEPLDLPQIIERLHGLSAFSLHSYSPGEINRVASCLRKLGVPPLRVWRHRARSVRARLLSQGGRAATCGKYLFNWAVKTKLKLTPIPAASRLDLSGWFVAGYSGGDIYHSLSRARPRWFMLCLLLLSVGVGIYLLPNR

| SMILES | IC50 [1] [µM] | EC50 [2] [µM] | Selectivity Index (CC50/EC50) [2] |
| --- | --- | --- | --- |
| Cc1ccc(NC(=O)C(CCCCN)NC(=O)Nc2nnc(COc3ccc(C)cc3)s2)cc1 [Compound 272, (S)-6-AMINO-2-[3-(5-P-TOLYLOXYMETHYL-[1,3,4] THIADIAZOL-2-YL)-UREIDO]-HEXANOIC ACID P-TOLYLAMIDE] | 10 to 50 | 0.5 to 2 | 20 to 100 |
| Cc1ccc(NC(=O)C(Cc2ccc(CN)cc2)NC(=O)Nc2ccc(-c3ccccc3)cc2)cc1 [Compound 145, (S)-3-(4-AMINOMETHYL-PHENYL)-2-(3-BIPHENYL-4-YL-UREIDO)-N-P-TOLYL-PROPIONAMIDE] | < 10 | > 2 | <20 |
| Cc1cc2cc(NC(=O)[C@H](CCCCN)NC(=O)Nc3ccc(-c4ccccc4)cc3)ccc2[nH]1 [Compound 94, (S)-6-AMINO-2-(3-BIPHENYL-4-YL-UREIDO)-HEXANOIC ACID (2-METHYL-1H-INDOL-5-YL)-AMIDE] | < 10 | > 2 | <20 |
| NCCCCN(CC(=O)Nc1ccc(C2CCCCC2)cc1)C(=O)Nc1ccc(C=Cc2ccccc2)cc1 [Compound 324, 2-[1-(4-AMINO-BUTYL)-3-(4-STYRYL-PHENYL)-UREIDO]-N-(4-CYCLOHEXYL-PHENYL)-ACETAMIDE] | 10 to 50 | > 2 | <20 |
| Cc1ccc(NC(=O)C[C@H](CCCCN)NC(=O)Nc2ccc(OCc3ccccc3)cc2)cc1 [Compound 246, (S)-7-AMINO-3-[3-(4-BENZYLOXY-PHENYL)-UREIDO]-HEPTANOIC ACID P-TOLYLAMIDE] | 10 to 50 | > 2 | <20 |
| Cc1cc2cc(NC(=O)[C@H](CCCCN)NC(=O)Nc3ccc4c(c3)Cc3ccccc3-4)ccc2[nH]1 [Compound 207, (S)-6-AMINO-2-[3-(9H-FLUOREN-2-YL)-UREIDO]-HEXANOIC ACID (2-METHYL-1H-INDOL-5-YL)-AMIDE] | < 10 | > 2 | <20 |
| NCCCC[C@H](NC(=O)Nc1ccc(-c2ccccc2)cc1)C(=O)Nc1ccc(C2CCCCC2)cc1 [Compound 119, (S)-6-AMINO-2-(3-BIPHENYL-4-YL-UREIDO)-HEXANOIC ACID (4-CYCLOHEXYL-PHENYL)-AMIDE] | < 10 | > 2 | <20 |
| Cc1ccc(NC(=O)C(CCCCN)NC(=O)Nc2ccc(-c3nc4ccc(C)cc4s3)cc2)cc1 [Compound 214, (S)-6-AMINO-2-{3-[4-(6-METHYL-BENZOTHIAZOL-2-YL)-PHENYL]-UREIDO}-HEXANOIC ACID P-TOLYLAMIDE] | < 10 | > 2 | <20 |
| Cc1cc2cc(NC(=O)[C@H](CCNC(=O)CN)NC(=O)OCC3c4ccccc4-c4ccccc43)ccc2[nH]1 [Compound 237, (S)-[3-(2-AMINO-ACETYLAMINO)-1-(2-METHYL-1H-INDOL-5-YLCARBAMOYL)-PROPYL]-CARBAMIC ACID 9H-FLUOREN-9-YLMETHYL ESTER] | < 10 | > 2 | <20 |
| Cc1cc2cc(NC(=O)C(CCCCN)NC(=O)OCC3c4ccccc4-c4ccccc43)ccc2[nH]1 [Compound 38, (S)-[5-AMINO-1-(2-METHYL-1H-INDOL-5-YLCARBAMOYL)-PENTYL]-CARBAMIC ACID 9H-FLUOREN-9-YL METHYL ESTER] | 10 to 50 | – | – |
| Cc1ccc(NC(=O)C(CC(=O)O)NC(=O)OCC2c3ccccc3-c3ccccc32)cc1 [Compound 371, (R)-3-(9H-FLUOREN-9-YLMETHOXYCARBONYLAMINO)-NR-P-TOLYL-[…]] | > 50 | – | – |
| Cc1ccc(NC(=O)[C@H](CCCCN)NC(=O)CNCc2ccc(F)cc2)cc1 [Compound 346, (S)-6-AMINO-2-[2-(4-FLUORO-BENZYLAMINO)-ACETYLAMINO]-HEXANOIC ACID P-TOLYLAMIDE] | > 50 | – | – |
| Cc1ccc(NC(=O)[C@@H](CCCCN)NC(=O)OCC2c3ccccc3-c3ccccc32)cc1 [Compound 20, (S)-(5-AMINO-1-P-TOLYLCARBAMOYL-PENTYL)-CARBAMIC ACID 9H-FLUOREN-9-YLMETHYL ESTER] | 10 to 50 | – | – |
| COc1ccc(C=Cc2ccc(NC(=O)N[C@@H](CCCCN)C(=O)Nc3ccc(C)cc3)cc2)cc1 [Compound 252, (S)-6-AMINO-2-(3-{4-[2-(4-METHOXY-PHENYL)-VINYL]-PHENYL}-UREIDO)-HEXANOIC ACID P-TOLYLAMIDE] | < 10 | – | – |
| Cc1ccc(NC(=O)[C@H](CCCCN)NS(=O)(=O)c2cc(Cl)cc(Cl)c2)cc1 [Compound 394, (S)-6-AMINO-2-(3,5-DICHLORO-BENZENESULFONYLAMINO)-HEXANOIC ACID P-TOLYLAMIDE] | > 50 | – | – |
| Cc1ccc(NC(=O)C(Cc2cccnc2)NC(=O)OCC2c3ccccc3-c3ccccc32)cc1 [Compound 385, (S)-(2-PYRIDIN-3-YL-1-P-TOLYLCARBAMOYL-ETHYL)-CARBAMIC ACID 9H-FLUOREN-9-YLMETHYL ESTER] | > 50 | – | – |
| Cc1ccc(NC(=O)C(CCCCN)NC(=O)NCCc2ccc(-c3ccccc3)cc2)cc1 [Compound 76, (S)-6-AMINO-2-[3-(2-BIPHENYL-4-YL-ETHYL)-UREIDO]-HEXANOIC ACID P-TOLYLAMIDE] | 10 to 50 | – | – |
| Cc1ccc(NC(=O)C(CCCCN)NC(=O)OCc2ccccc2)cc1 [Compound 403, (S)-(5-AMINO-1-P-TOLYLCARBAMOYL-PENTYL)-CARBAMIC ACID BENZYL ESTER] | > 50 | – | – |

| SMILES | IC50 [1] [µM] | EC50 [2] [µM] | Selectivity Index (CC50/EC50) [2] |
| --- | --- | --- | --- |
| COc1ccccc1NCC(=O)N[C@@H](CCCCN)C(=O)Nc1ccc(C)cc1 [Compound 357, (S)-6-AMINO-2-[2-(2-METHOXY-PHENYLAMINO)-ACETYLAMINO]-HEXANOIC ACID P-TOLYLAMIDE] | > 50 | – | – |
| CN1CCN(C(=O)[C@H](CCCCN)NC(=O)Nc2ccc(OCc3ccccc3)cc2)CC1 [Compound 289, (S)-1-[5-AMINO-1-(4-METHYL-PIPERAZINE-1-CARBONYL)-PENTYL]-3-(4-BENZYLOXY-PHENYL)-UREA] | > 50 | – | – |
| Cc1ccc(NC(=O)[C@H](CCCCN)NS(=O)(=O)c2ccc(Cl)c(Cl)c2)cc1 [Compound 392, (S)-6-AMINO-2-(3,4-DICHLORO-BENZENESULFONYLAMINO)-HEXANOIC ACID P-TOLYLAMIDIE] | > 50 | – | – |
| Cc1ccc(NC(=O)[C@@H](N)CCCCN)cc1 [Compound 114, (S)-2,6-DIAMINO-HEXANOIC ACID P-TOLYLAMIDE] | > 50 | – | – |
| Cc1ccc(NC(=O)[C@H](CCCCN)NC(=O)Nc2cccc(Br)c2)cc1 [Compound 118, (S)-6-AMINO-2-[3-(3-BROMO-PHENYL)-UREIDO]-HEXANOIC ACID P-TOLYLAMIDE] | > 50 | – | – |
| Cc1ccc(NC(=O)C(Cc2ccc(CN)cc2)NC(=O)OCC2c3ccccc3-c3ccccc32)cc1 [Compound 129, (S)-[2-(4-AMINOMETHYL-PHENYL)-1-P-TOLYLCARBAMOYL-ETHYL]-CARBAMIC ACID 9H-FLUOREN-9-YLMETHYL ESTER] | < 10 | – | – |
| NCCCC[C@@H](NC(=O)OCC1c2ccccc2-c2ccccc21)C(=O)Nc1ccc(-c2ccccc2)cc1 [Compound 144, (R)-[5-AMINO-1-(BIPHENYL-4-YLCARBAMOYL)-PENTYL]-CARBAMIC ACID 9H-FLUOREN-9-YLMETHYL ESTER] | < 10 | – | – |
| NCCC[C@@H](NC(=O)Nc1ccc(OCc2ccccc2)cc1)C(=O)Nc1ccc(C2CCCCC2)cc1 [Compound 202, (R)-5-AMINO-2-[3-(4-BENZYLOXY-PHENYL)-UREIDO]-PENTANOIC ACID (4-CYCLOHEXYL-PHENYL)-AMIDE] | < 10 | – | – |
| Cc1ccc(NC(=O)C(CCN)NC(=O)OCC2c3ccccc3-c3ccccc32)cc1 [Compound 108, (S)-(3-AMINO-1-P-TOLYLCARBAMOYL-PROPYL)-CARBAMIC ACID 9H-FLUOREN-9-YLMETHYL ESTER] | > 50 | – | – |
| Cc1ccc(NC(=O)C(CCCCN)NC(=O)Cc2cccc3ccccc23)cc1 [Compound 91, (S)-6-AMINO-2-(2-NAPHTHALEN-1-YL-ACETYLAMINO)-HEXANOIC ACID P-TOLYLAMIDE] | > 50 | – | – |
| CC(C)(C)c1ccc(NC(=O)[C@H](Cc2ccc(CN)cc2)NC(=O)NCc2ccccc2)cc1 [Compound 148, (S)-3-(4-AMINOMETHYL-PHENYL)-2-(3-BENZYL-UREIDO)-N-(4-TERT-BUTYL-PHENYL)-PROPIONAMIDE] | > 50 | – | – |
| CCNCC(=O)NCCCC(NC(=O)OCC1c2ccccc2-c2ccccc21)C(=O)Nc1ccc(C)cc1 [Compound 242, (S)-[4-(2-ETHYLAMINO-ACETYLAMINO)-1-P-TOLYLCARBAMOYL-BUTYL]-CARBAMIC ACID 9H-FLUOREN-9-YLMETHYL ESTER] | < 10 | – | – |
| NCCCC[C@H](NC(=O)Nc1ccc(OCc2ccccc2)cc1)C(=O)N1CCOCC1 [Compound 318, (S)-l -[5-AMINO-1-(MORPHOLINE-4-CARBONYL)-PENTYL]-3-(4-BENZYLOXY-PHENYL)-UREA] | 10 to 50 | – | – |
| Cc1ccc(NC(=O)C(CCCCN)NC(=O)c2ccc3ccccc3c2)cc1 [Compound 51, (S)-NAPHTHALENE-2-CARBOXYLIC ACID (5-AMINO-1-P-TOLYLCARBAMOYL-PENTYL)-AMIDE] | > 50 | – | – |
| Cc1ccc(NC(=O)C(CCCCN)NC(=O)COc2ccc(-c3ccccc3)cc2)cc1 [Compound 326, (S)-6-AMINO-2-[2-(BIPHENYL-4-YLOXY)-ACETYLAMINO]-HEXANOIC ACID P-TOLYLAMIDE] | > 50 | – | – |
| Cc1ccc(NC(=O)C(CCCCN)NC(=O)CNCc2cccc(C)c2)cc1 [Compound 339, (S)-6-AMINO-2-[2-(3-METHYL-BENZYLAMINO)-ACETYLAMINO]-HEXANOIC ACID P-TOLYLAMIDE] | > 50 | – | – |
| NCc1ccc(NC(=O)C(NC(=O)Nc2ccc(OCc3ccccc3)cc2)c2ccccc2)cc1 [Compound 305, (S)-NR-(4-AMINOMETHYL-PHENYL)-2-[3-(4-BENZYLOXY-PHENYL)-UREIDO]-2-PHENYL-ACETAMIDE] | < 10 | – | – |
